Source: PubChem BioAssay AID1963445 (Molecular Pharmacology Branch, DTP, NCI, 2024)
Values joined by “and” are separate entries in the source; they are usually repeats but may differ in a detail not shown here. Identical values can stand only once.

Tested on: MCF7 complex spheroid growth, % test/control
Test: Anticancer human tumor MCF7 cell line growth inhibition [Asc];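 further: spheroids exposed to compounds for 7 days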;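 on viability, T/C: 100% = DMSO vehicle control wells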
Details: for viability, T/C: stronger effect = lower value; active means viability on the fitted dose curve at most 10% of control; inactive means the rest
Protocol: Multicellular complex tumor spheroid response to apoptosis pathway targeting inhibitors Alrizomadlin, Pelcitoclax, and Dasminapant in combination with a variety of drugs and investigational agents in selected tumor cell lines
The MDM2 inhibitor alrizomadlin, the Bcl-2/Bcl-xL inhibitor pelcitoclax, and the IAPs inhibitor dasminapant were evaluated both individually and in combination with standard of care and investigational anticancer small molecules within a complex spheroid model of solid tumors. . Complex spheroids include a stromal component modeled by human endothelial cells (HUVEC) and fibroblasts modeled by human mesenchymal stem cells (MSCs). The concentration ranges selected for each drug and investigational agent were based upon clinically achievable concentrations if the clinical Cmax of the agent was known.
Compounds. The drugs and investigational agents: alrizomadlin (APG-115; NSC831270), pelcitoclax (APG-1252; NSC835773), dasminapant (APG-1387;NSC834197), TAK-243 (NSC785004), copanlisib (NSC809693), olaparib (NSC753686), talazoparib (NSC767125), cobimetinib (NSC 768068), eltanexor (KPT-8602, NSC 794443), abemaciclib (NSC 768073), sotorasib (NSC818433), adagrasib (NSC 831453), MRTX-1133 (NSC 836407), Iadademestat (ORY1001, NSC 806812), and RMC-4630 (NSC839698), were obtained from the NCI Developmental Therapeutics Program Chemical Repository. The FDA-approved anticancer drug set is available from the Developmental Therapeutics Program at https://dtp.cancer.gov/organization/dscb/obtaining/available plates.htm. […] The stock solutions were prepared in dimethyl sulfoxide (DMSO, Sigma-Aldrich, St. Louis, MO, cat. D2650) at 800-fold the tested concentration and stored at -70 degrees C prior to their use. All drugs and investigational agents were tested over a range starting from a high concentration at or near the clinical Cmax and decreasing in half-log increments. If the clinical Cmax for an agent had not been determined, the highest concentration tested was 10 microM.
The patient-derived cancer (PDC) cell lines include five colon adenocarcinomas: 186277-243-T-J2-PDC, 616215-338-R-J1-PDC, 439559-082-T-J2-PDC, 463943-066-T-J2-PDC, and 519858-162-T-J1-PDC; three pancreatic carcinomas: 323965-272-R-J2-PDC, 521955-158-R6-J3-PDC, and 521955-158-R2-J5-PDC; two uterine sarcomas: 327498-152-R-J2-PDC and 993429-296-R-J1-PDC; two rhabdomyosarcomas: 755483-174-R-J1-PDC and 772245-204-R-J1-PDC; two soft tissue sarcomas: 126254-015-R-J1-PDC and 494315-158-R-J1-PDC; two malignant fibrous histiocytomas: 317291-083-R-J1-PDC and 596521-263-R-J1-PDC; two breast carcinomas: 171881-019-R-J1-PDC and 885512-296-R-J2-PDC; and one ovarian carcinoma: 6556581-035-R-J-PDC were obtained from the NCI PDMR, (https://pdmr.cancer.gov). The established cell lines HSSY-2 synovial sarcoma (RRID:CVCL 8719), SYO-1 synovial sarcoma (RRID:CVCL_7146), MPNST malignant peripheral neural sheath tumor were obtained from the Sloan Kettering Institute. The following established cell lines were purchased from the American Type Culture Collection (ATCC, Manassas, VA), Sor the received from the NCI repository:, PANC-1 pancreatic carcinoma (CRL-1469, RRID:CVCL_0480), OVCAR-5 ovarian carcinoma (RRID:CVCL_1628), OVCAR-8 ovarian carcinoma (RRID:CVCL_1629), , MCF-7 breast carcinoma (CRL-12584, RRID:CVCL_0031), MDA-MB-231 breast carcinoma (CRL-12532, RRID:CVCL_0062), NCI-H1876 small cell lung carcinoma (CRL-5902, RRID:CVCL_1503), NCI-H510A small cell lung carcinoma (HTB-184, RRID:CVCL_1565), NCI-H1417 (CRL-5869, RRID:CVCL_1469), and NCI-H196 small cell lung carcinoma (CRL-5823, RRID:CVCL_1509). Dr. Peter Houghton (Greehey Children's Cancer Research Institute, University of Texas Health Science Center, San Antonio, TX) provided Rh-18 rhabdomyosarcoma (RRID:CVCL_1659). Pooled donor human umbilical vein endothelial cells (HUVEC, Lonza, cat. CC-2519) and human mesenchymal stem cells (hMSC, Lonza, cat. PT-2501) were purchased from Lonza (Walkersville, MD).
Cell Culture. […]

C#Cc1c(F)ccc2cc(O)cc(-c3ncc4c(N5CC6CCC(C5)N6)nc(OCC56CCCN5CC(F)C6)nc4c3F)c12 (centres undefined) + CCN1C(C(=O)NC23CCC(C(=O)O)(CC2)CC3)C(c2cccc(Cl)c2F)C2(C(=O)Nc3cc(Cl)ccc32)C12CCCCC2
< 31.6 nM: IC50 (curve of first compound, second compound 0.3 µM) | IC50 (curve of first compound, second compound 0.949 µM) | IC50 (curve of first compound, second compound 3 µM)
inactive: viability, T/C (second compound 0.00949 µM, first compound 0.0316 µM) 92.6% | viability, T/C (second compound 0.00949 µM, first compound 0.1 µM) 114% | viability, T/C (second compound 0.00949 µM, first compound 0.316 µM) 111% | viability, T/C (second compound 0.00949 µM, first compound 1 µM) 102% | viability, T/C (second compound 0.00949 µM, first compound 3.16 µM) 107% | viability, T/C (second compound 0.00949 µM, first compound 10 µM) 76.4% | viability, T/C (second compound 0.03 µM, first compound 0.0316 µM) 100% | viability, T/C (second compound 0.03 µM, first compound 0.1 µM) 81.7% | viability, T/C (second compound 0.03 µM, first compound 0.316 µM) 91.8% | viability, T/C (second compound 0.03 µM, first compound 1 µM) 81.2% | viability, T/C (second compound 0.03 µM, first compound 3.16 µM) 102% | viability, T/C (second compound 0.03 µM, first compound 10 µM) 70.7% | viability, T/C (second compound 0.0949 µM, first compound 0.0316 µM) 47.6% | viability, T/C (second compound 0.0949 µM, first compound 0.1 µM) 60.5% | viability, T/C (second compound 0.0949 µM, first compound 0.316 µM) 36.4% | viability, T/C (second compound 0.0949 µM, first compound 1 µM) 42.2% | viability, T/C (second compound 0.0949 µM, first compound 3.16 µM) 47.8% | viability, T/C (second compound 0.0949 µM, first compound 10 µM) 32.9% | viability, T/C (second compound 0.3 µM, first compound 0.0316 µM) 27.1% | viability, T/C (second compound 0.3 µM, first compound 0.1 µM) 24.6% | viability, T/C (second compound 0.3 µM, first compound 0.316 µM) 28.6% | viability, T/C (second compound 0.3 µM, first compound 1 µM) 27.4% | viability, T/C (second compound 0.3 µM, first compound 3.16 µM) 23.5% | viability, T/C (second compound 0.3 µM, first compound 10 µM) 19.9% | viability, T/C (second compound 0.949 µM, first compound 0.0316 µM) 17.1% | viability, T/C (second compound 0.949 µM, first compound 0.1 µM) 19.2% | viability, T/C (second compound 0.949 µM, first compound 0.316 µM) 14.1% | viability, T/C (second compound 0.949 µM, first compound 1 µM) 17.8% | viability, T/C (second compound 0.949 µM, first compound 3.16 µM) 16.3% | viability, T/C (second compound 0.949 µM, first compound 10 µM) 10.8% | viability, T/C (second compound 3 µM, first compound 0.0316 µM) 12.8% | viability, T/C (second compound 3 µM, first compound 0.1 µM) 11.4% | viability, T/C (second compound 3 µM, first compound 0.316 µM) 11.5% | viability, T/C (second compound 3 µM, first compound 1 µM) 10.2% | viability, T/C (second compound 3 µM, first compound 3.16 µM) 14.1% | viability, T/C (second compound 3 µM, first compound 10 µM) 7.87%
> 10000 nM: IC50 (curve of first compound, second compound 0.00949 µM) | IC50 (curve of first compound, second compound 0.03 µM)
59.8 nM: IC50 (curve of first compound, second compound 0.0949 µM)

CCN1C(C(=O)NC23CCC(C(=O)O)(CC2)CC3)C(c2cccc(Cl)c2F)C2(C(=O)Nc3cc(Cl)ccc32)C12CCCCC2 (centres undefined)
94.5 nM [middle of 7 runs]: IC50 (compound alone, run of 11/07/2022)
70.9 nM and 108 nM: IC50 (curve of compound)
inactive: viability, T/C (compound 0.00949 µM) 102% [middle of 9 runs] | viability, T/C (compound 0.0949 µM) 48.1% [middle of 9 runs] | viability, T/C (compound 0.3 µM) 33.8% [middle of 9 runs] | viability, T/C (compound 0.949 µM) 23.2% [middle of 9 runs] | viability, T/C (compound 3 µM) 15.6% [middle of 9 runs]
